Results taken from the supplement of paper PMC11368000.

Key:
Conditions in all cases: exposure time: 90 min
30171 [1] = donor line of iPSC-derived cardiomyocytes; assay: POD (EC10) for decrease in total cell number (cytotoxicity) vs vehicle; higher = less potent (higher point of departure)
Outline: (§1)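 After 14 days of culture in 384-well plates, human iPSC-derived cardiomyocytes from 16 donors received 0.1, 1, 10 or 100 µM (final, 0.5% DMSO) for 90 min at 37 °C. Nuclei were then counted per field in MetaXpress from 10× images after Hoechst 33342 staining, and a 10% decrease in vehicle-normalised counts served as the benchmark. For each donor, the cytotoxicity point of departure came from a hierarchical Bayesian Hill fit.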

1516 = donor line of iPSC-derived cardiomyocytes; assay: as above
Outline: as §1

20084 = donor line of iPSC-derived cardiomyocytes; assay: as above
Outline: as §1

1565 = donor line of iPSC-derived cardiomyocytes; assay: as above
Outline: as §1

1392 = donor line of iPSC-derived cardiomyocytes; assay: as above
Outline: as §1

1535 = donor line of iPSC-derived cardiomyocytes; assay: as above
Outline: as §1

1368 [2] = donor line of iPSC-derived cardiomyocytes; assay: as above
Outline: as §1

1434 [3] = donor line of iPSC-derived cardiomyocytes; assay: as above
Outline: as §1

1518 [4] = donor line of iPSC-derived cardiomyocytes; assay: as above
Outline: as §1

1083 [5] = donor line of iPSC-derived cardiomyocytes; assay: as above
Outline: as §1

1118 [6] = donor line of iPSC-derived cardiomyocytes; assay: as above
Outline: as §1

11235 [7] = donor line of iPSC-derived cardiomyocytes; assay: as above
Outline: as §1

30171 [8] = assay: POD (EC05) for decrease in beat frequency (negative chronotrope) vs vehicle; higher = less potent (higher point of departure)
Method: (§2)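 Human iPSC-derived cardiomyocytes from 16 donors were exposed for 90 min at 37 °C to each PFAS at 0.1, 1, 10 and 100 µM in 0.5% DMSO, 384-well plates. Kinetic Ca2+ flux (FLIPR) and Hoechst nuclei counts were normalised to vehicle wells and fitted with a hierarchical Bayesian Hill model to give donor-specific PODs: EC05 for beat-rate increase or decrease and for decay-to-rise ratio increase (QT proxy), EC95 for peak-frequency loss (asystole), EC10 for total cell number loss. 0.03 µM is the lower bound.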

1368 [9] = assay: as above
Method: as §2

1434 [10] = assay: as above
Method: as §2

1518 [11] = assay: as above
Method: as §2

1531 = donor line of iPSC-derived cardiomyocytes; assay: as above
Method: as §2

1083 [12] = assay: as above
Method: as §2

1118 [13] = assay: as above
Method: as §2

11235 [14] = assay: as above
Method: as §2

SMILES	POD vs vehicle 30171 [1]	POD vs vehicle 1516	POD vs vehicle 20084	POD vs vehicle 1565	POD vs vehicle 1392	POD vs vehicle 1535	POD vs vehicle 1368 [2]	POD vs vehicle 1434 [3]	POD vs vehicle 1518 [4]	POD vs vehicle 1083 [5]	POD vs vehicle 1118 [6]	POD vs vehicle 11235 [7]	POD vs vehicle 30171 [8]	POD vs vehicle 1368 [9]	POD vs vehicle 1434 [10]	POD vs vehicle 1518 [11]	POD vs vehicle 1531	POD vs vehicle 1083 [12]	POD vs vehicle 1118 [13]	POD vs vehicle 11235 [14]
O=S(=O)(O)CCC(F)(F)C(F)(F)C(F)(F)C(F)(F)F [4:2 Fluorotelomer sulfonic acid]	> 100 µM	> 100 µM	> 100 µM	> 100 µM	> 100 µM	> 100 µM	> 100 µM	> 100 µM	> 100 µM	> 100 µM	> 100 µM	> 100 µM	> 100 µM	> 100 µM	> 100 µM	> 100 µM	> 100 µM	> 100 µM	> 100 µM	> 100 µM
OCCC(F)(F)C(F)(F)C(F)(F)C(F)(F)C(F)(F)C(F)(F)F [6:2 Fluorotelomer alcohol]	> 100 µM	> 100 µM	> 100 µM	> 100 µM	> 100 µM	> 100 µM	> 100 µM	> 100 µM	> 100 µM	> 100 µM	> 100 µM	> 100 µM	> 100 µM	> 100 µM	> 100 µM	> 100 µM	> 100 µM	58.7 µM	31.5 µM	> 100 µM
O=S(=O)(O)CCC(F)(F)C(F)(F)C(F)(F)C(F)(F)C(F)(F)C(F)(F)F [6:2 Fluorotelomer sulfonic acid]	> 100 µM	> 100 µM	> 100 µM	> 100 µM	> 100 µM	> 100 µM	> 100 µM	> 100 µM	> 100 µM	> 100 µM	> 100 µM	> 100 µM	24.5 µM	> 100 µM	> 100 µM	42.6 µM	25.1 µM	> 100 µM	12.8 µM	6.84 µM
OCCC(F)(F)C(F)(F)C(F)(F)C(F)(F)C(F)(F)C(F)(F)C(F)(F)C(F)(F)F [8:2 Fluorotelomer alcohol]	> 100 µM	> 100 µM	> 100 µM	> 100 µM	> 100 µM	> 100 µM	> 100 µM	> 100 µM	> 100 µM	> 100 µM	> 100 µM	> 100 µM	> 100 µM	> 100 µM	> 100 µM	> 100 µM	> 100 µM	> 100 µM	> 100 µM	> 100 µM
O=S(=O)(O)CCC(F)(F)C(F)(F)C(F)(F)C(F)(F)C(F)(F)C(F)(F)C(F)(F)C(F)(F)F [8:2 Fluorotelomer sulfonic acid]	> 100 µM	> 100 µM	> 100 µM	> 100 µM	> 100 µM	> 100 µM	> 100 µM	> 100 µM	> 100 µM	> 100 µM	> 100 µM	> 100 µM	6.39 µM	> 100 µM	12.8 µM	65.7 µM	1.06 µM	> 100 µM	> 100 µM	0.121 µM
O=C(O)C(F)(F)C(F)(F)C(F)(F)C(F)(F)C(F)(F)C(F)(F)C(F)(F)C(F)(F)Cl [9-Chloro-perfluorononanoic_acid]	30.5 µM	56.2 µM	> 100 µM	> 100 µM	> 100 µM	> 100 µM	> 100 µM	36.7 µM	> 100 µM	> 100 µM	> 100 µM	> 100 µM	6.24 µM	> 100 µM	10.9 µM	> 100 µM	> 100 µM	> 100 µM	13.1 µM	2.23 µM
O=P(O)(O)CCC(F)(F)C(F)(F)C(F)(F)C(F)(F)C(F)(F)C(F)(F)C(F)(F)C(F)(F)F [((Perfluorooctyl)ethyl)phosphonic_acid]	> 100 µM	> 100 µM	> 100 µM	> 100 µM	> 100 µM	> 100 µM	> 100 µM	> 100 µM	> 100 µM	> 100 µM	> 100 µM	> 100 µM	> 100 µM	> 100 µM	> 100 µM	> 100 µM	> 100 µM	> 100 µM	> 100 µM	> 100 µM
O=C([O-])C(F)(F)C(F)(F)C(F)(F)C(F)(F)C(F)(F)C(F)(F)C(F)(F)F.[NH4+] [Ammonium_perfluorooctanoate]	> 100 µM	> 100 µM	> 100 µM	> 100 µM	> 100 µM	> 100 µM	> 100 µM	> 100 µM	> 100 µM	> 100 µM	> 100 µM	> 100 µM	7.16 µM	> 100 µM	46.1 µM	87.3 µM	18.9 µM	> 100 µM	11 µM	4.51 µM
OCC(F)(F)C(F)(F)C(F)(F)C(F)(F)C(F)(F)C(F)F [Dodecafluoroheptanol]	46.4 µM	> 100 µM	> 100 µM	> 100 µM	> 100 µM	> 100 µM	> 100 µM	> 100 µM	> 100 µM	> 100 µM	95.5 µM	85.3 µM	20.1 µM	13.7 µM	18.1 µM	14.9 µM	15.7 µM	15.3 µM	1.39 µM	19.2 µM
OCC(F)(F)C(F)(F)C(F)(F)F [Heptafluorobutanol]	> 100 µM	> 100 µM	> 100 µM	> 100 µM	> 100 µM	> 100 µM	> 100 µM	> 100 µM	> 100 µM	> 100 µM	> 100 µM	> 100 µM	> 100 µM	> 100 µM	> 100 µM	> 100 µM	> 100 µM	> 100 µM	> 100 µM	> 100 µM
NC(=O)C(F)(F)C(F)(F)C(F)(F)F [Heptafluorobutyramide]	> 100 µM	> 100 µM	> 100 µM	> 100 µM	> 100 µM	> 100 µM	> 100 µM	> 100 µM	> 100 µM	> 100 µM	> 100 µM	> 100 µM	> 100 µM	> 100 µM	> 100 µM	> 100 µM	> 100 µM	> 100 µM	> 100 µM	> 100 µM
OCC(F)(F)C(F)(F)C(F)(F)CO [Hexafluoroamylene_glycol]	> 100 µM	> 100 µM	> 100 µM	> 100 µM	> 100 µM	> 100 µM	> 100 µM	> 100 µM	> 100 µM	> 100 µM	> 100 µM	> 100 µM	> 100 µM	> 100 µM	> 100 µM	> 100 µM	> 100 µM	> 100 µM	> 100 µM	> 100 µM
COC(=O)C(F)(F)C(F)(F)OC(F)(C(F)(F)F)C(F)(F)OC(F)=C(F)F (stereo not given) [Methyl_perfluoro(3-(1-ethenyloxypropan-2-yloxy)propanoate)]	> 100 µM	> 100 µM	> 100 µM	> 100 µM	> 100 µM	> 100 µM	> 100 µM	> 100 µM	> 100 µM	> 100 µM	> 100 µM	> 100 µM	> 100 µM	> 100 µM	> 100 µM	> 100 µM	> 100 µM	> 100 µM	> 100 µM	> 100 µM
NC(=O)C(F)(F)C(F)(F)C(F)(F)C(F)(F)F [Nonafluoropentanamide]	> 100 µM	> 100 µM	> 100 µM	> 100 µM	> 100 µM	> 100 µM	> 100 µM	> 100 µM	> 100 µM	> 100 µM	> 100 µM	> 100 µM	> 100 µM	> 100 µM	> 100 µM	> 100 µM	> 100 µM	> 100 µM	17.3 µM	> 100 µM
NC(=O)C(F)(F)C(F)(F)C(F)(F)C(F)(F)C(N)=O [Octafluoroadipamide]	> 100 µM	> 100 µM	> 100 µM	> 100 µM	> 100 µM	> 100 µM	> 100 µM	> 100 µM	> 100 µM	> 100 µM	> 100 µM	> 100 µM	> 100 µM	> 100 µM	> 100 µM	> 100 µM	> 100 µM	> 100 µM	> 100 µM	> 100 µM
O=C(O)C(F)(F)C(F)(F)C(F)(F)OC(F)(F)F [Perfluoro(4-methoxybutanoic)_acid]	> 100 µM	> 100 µM	> 100 µM	> 100 µM	> 100 µM	> 100 µM	> 100 µM	> 100 µM	> 100 µM	> 100 µM	> 100 µM	> 100 µM	> 100 µM	> 100 µM	> 100 µM	> 100 µM	> 100 µM	> 100 µM	> 100 µM	> 100 µM
O=C(O)C(F)(F)OC(F)(F)C(F)(F)OC(F)(F)C(F)(F)OC(F)(F)C(F)(F)C(F)(F)C(F)(F)F [Perfluoro-3,6,9-trioxatridecanoic_acid]	59.5 µM	55.4 µM	> 100 µM	> 100 µM	> 100 µM	> 100 µM	> 100 µM	33.3 µM	> 100 µM	> 100 µM	> 100 µM	> 100 µM	20.7 µM	> 100 µM	22.8 µM	> 100 µM	3.38 µM	21.8 µM	18.3 µM	23.1 µM
O=C(O)C(F)(F)OC(F)(F)C(F)(F)OC(F)(F)F [Perfluoro-3,6-dioxaheptanoic_acid]	> 100 µM	> 100 µM	> 100 µM	> 100 µM	> 100 µM	> 100 µM	> 100 µM	> 100 µM	> 100 µM	> 100 µM	> 100 µM	> 100 µM	> 100 µM	> 100 µM	> 100 µM	> 100 µM	> 100 µM	> 100 µM	> 100 µM	> 100 µM
O=C(O)C(F)(F)OC(F)(F)C(F)(F)OC(F)(F)C(=O)O [Perfluoro-3,6-dioxaoctane-1,8-dioic_acid]	> 100 µM	> 100 µM	> 100 µM	> 100 µM	> 100 µM	> 100 µM	> 100 µM	> 100 µM	> 100 µM	> 100 µM	> 100 µM	> 100 µM	> 100 µM	> 100 µM	> 100 µM	> 100 µM	> 100 µM	> 100 µM	> 100 µM	> 100 µM
